# Data: article PMC9460159 (iScience, 2022)
# T1: YciM (Salmonella enterica, UniProt Q7CQG6)
# T1 sequence (Q7CQG6 23-389): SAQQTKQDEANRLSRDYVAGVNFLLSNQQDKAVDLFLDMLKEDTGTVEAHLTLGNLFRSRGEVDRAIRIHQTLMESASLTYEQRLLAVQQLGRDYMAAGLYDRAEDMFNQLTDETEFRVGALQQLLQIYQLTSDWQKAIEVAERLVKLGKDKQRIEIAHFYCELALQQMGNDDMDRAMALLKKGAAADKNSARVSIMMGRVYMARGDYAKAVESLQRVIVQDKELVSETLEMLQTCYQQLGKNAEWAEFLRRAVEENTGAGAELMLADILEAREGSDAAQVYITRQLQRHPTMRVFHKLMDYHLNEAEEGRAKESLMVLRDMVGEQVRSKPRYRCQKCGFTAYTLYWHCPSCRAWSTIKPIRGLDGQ
# B1: YciM cytoplasmic domain of S. typhimurium (domain or fragment, UniProt A0A0F6B1Z6 136-389, looked up)
# chain: ETEFRVGALQQLLQIYQLTSDWQKAIEVAERLVKLGKDKQRIEIAHFYCELALQQMGNDDMDRAMALLKKGAAADKNSARVSIMMGRVYMARGDYAKAVESLQRVIVQDKELVSETLEMLQTCYQQLGKNAEWAEFLRRAVEENTGAGAELMLADILEAREGSDAAQVYITRQLQRHPTMRVFHKLMDYHLNEAEEGRAKESLMVLRDMVGEQVRSKPRYRCQKCGFTAYTLYWHCPSCRAWSTIKPIRGLDGQ
# Key:
# [1] = target: T1, YciM; assay: isothermal titration calorimetry, single-site fit; format: binding
# [2] = target: the molecule itself; assay: crystal structure
Molecule,Kd [1],binding result [2]
CCCCCCCCCCCC(O)CC(=O)O (centres unmarked) [3-hydroxymyristic acid],1250 ± 880 nM,
B1,,binds
